Results on 18 molecules are retold here after patent US20100130512A1, “FUSED-RING H[…]” (RENSSELAER POLYTECHNIC INSTITUTE, priority 2007, published 2010).

The Ki is a dissociation constant, usually derived from enzyme kinetics or from competition with a known ligand.

Read-outs that look alike come from different tables or passages of the source.

Test [1] addresses T1, human opioid receptor (δ) (Homo sapiens, UniProt P41143).
T1 construct: expressed in transfected cells
Nature of the test: Opioid receptor binding, [3H]naltrindole (δ).

The target in test [2] is T2, human opioid receptor (μ) (Homo sapiens, UniProt P35372).
T2 construct: expressed in transfected cells
Nature of the test: Opioid receptor binding, [3H]DAMGO (μ).

The target of test [3] is T3, human opioid receptor (κ) (Homo sapiens, UniProt P41145).
T3 construct: expressed in transfected cells
Nature of the test: Opioid receptor binding, [3H]U69,593 (κ).

For test [4], the system named is guinea pig μ receptors. The settings on record: cyclazocine series; μ printed as ∥; cited from earlier work.
Test [5] concerns mice. The settings on record: cited from earlier work; for duration of action: 1 mg/kg ip in mice.
Test [6] relates to κ opioid receptors. To be noted: cyclazocine series; cited from earlier work.
Test [7] concerns the target T4, human μ opioid receptor (Homo sapiens, UniProt P35372).
T4 construct: expressed in transfected cells
Nature of the test: [35S]GTPγS binding assay, μ. The class given is biochemical. The settings on record: agonist/antagonist character; antagonism vs 200 nM DAMGO. For orientation: GTPγS is a poorly hydrolysed GTP analogue; its binding reports G protein activation.

Test [8] addresses T5, human κ opioid receptor (Homo sapiens, UniProt P41145).
T5 construct: expressed in transfected cells
The test can be described thus: [35S]GTPγS binding assay, κ. Format: biochemical. To be noted: agonist/antagonist character; antagonism vs 100 nM U50,488.

Setting [9] is: read-out: Ki [3H]Naltrindole (δ), CHO cell membranes, 0.2 nM [3H]naltrindole, mean±SEM.
[10] abbreviates: read-out: Ki [3H]DAMGO (μ), CHO cell membranes, […] [3H]DAMGO, mean±SEM.
The mark [11] stands for this setting: CHO cell membranes, 1 nM [3H]U69,593, mean±SEM, read-out: Ki [3H]U69,593 (K).

T3 sequence (P41145 whole entry): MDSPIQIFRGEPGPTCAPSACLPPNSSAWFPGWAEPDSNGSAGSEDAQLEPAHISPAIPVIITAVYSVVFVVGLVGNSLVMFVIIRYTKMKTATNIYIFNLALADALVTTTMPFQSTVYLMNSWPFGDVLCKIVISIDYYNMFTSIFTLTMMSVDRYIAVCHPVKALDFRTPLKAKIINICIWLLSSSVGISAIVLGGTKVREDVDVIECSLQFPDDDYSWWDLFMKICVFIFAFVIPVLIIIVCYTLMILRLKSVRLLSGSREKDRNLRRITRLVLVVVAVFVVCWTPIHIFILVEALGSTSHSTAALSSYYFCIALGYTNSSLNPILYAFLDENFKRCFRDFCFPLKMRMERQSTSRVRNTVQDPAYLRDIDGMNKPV
T5 sequence (P41145 whole entry): as above
T1 sequence (P41143 whole entry): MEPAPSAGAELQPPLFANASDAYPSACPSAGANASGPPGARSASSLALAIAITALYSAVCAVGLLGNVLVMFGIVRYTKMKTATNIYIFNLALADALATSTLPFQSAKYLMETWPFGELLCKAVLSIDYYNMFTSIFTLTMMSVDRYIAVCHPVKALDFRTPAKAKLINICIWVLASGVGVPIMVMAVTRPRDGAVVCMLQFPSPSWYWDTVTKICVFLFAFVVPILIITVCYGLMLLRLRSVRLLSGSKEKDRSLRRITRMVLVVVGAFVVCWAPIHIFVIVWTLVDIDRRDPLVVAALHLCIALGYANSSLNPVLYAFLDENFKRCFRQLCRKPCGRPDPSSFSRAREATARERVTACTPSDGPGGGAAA
T4 sequence (P35372 whole entry): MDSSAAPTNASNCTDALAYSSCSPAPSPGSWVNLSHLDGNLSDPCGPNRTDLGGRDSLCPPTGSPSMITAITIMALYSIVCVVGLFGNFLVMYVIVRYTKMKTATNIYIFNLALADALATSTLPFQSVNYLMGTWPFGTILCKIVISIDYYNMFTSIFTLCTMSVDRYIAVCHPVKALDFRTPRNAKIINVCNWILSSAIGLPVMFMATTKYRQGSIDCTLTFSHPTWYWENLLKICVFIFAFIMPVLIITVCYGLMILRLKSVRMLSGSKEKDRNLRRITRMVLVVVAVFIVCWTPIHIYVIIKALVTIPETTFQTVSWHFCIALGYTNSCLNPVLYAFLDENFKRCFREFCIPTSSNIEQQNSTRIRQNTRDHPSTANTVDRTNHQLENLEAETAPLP
T2 sequence (P35372 whole entry): as above

With `CC1C2Cc3ccc(C(N)=O)c(N)c3C1(C)CCN2CC1CC1` (mixture of isomers) [Example 6, Cis-(±)-3-(cyclopropylmethyl)-1,2,3,4,5,6-hexahydro-6,11-dimethyl-7-amino-2,6-methano-3-benzazocine-8-carboxamide], the Ki worked out at 35 ± 0.036 nM in test [1], 0.55 ± 0.029 nM in test [2] and 0.7 ± 0.036 nM in test [3].
For `C[C@H]1C2Cc3cc(N)c(C(N)=O)cc3[C@@]1(C)CCN2CC1CC1` (racemic) [Example 7, Cis-(±)-3-(cyclopropylmethyl)-1,2,3,4,5,6-hexahydro-6,11-dimethyl-9-amino-2,6-methano-3-benzazocine-8-carboxamide] the same measures were 2000 ± 12 nM, 88 ± 5.2 nM and 32 ± 1.7 nM.
For `C[C@H]1C2Cc3ccc(C(N)=O)cc3[C@@]1(C)CCN2CC1CC1` [Example 8-CAC, 8-carboxamidocyclazocine], the “affinity for μ opioid receptors” value in test [4] is recorded as “high affinity”. Moreover, the duration of action in test [5] is recorded as 15 h. Besides, in test [5] (studies in vivo), the antinociception activity entry is listed as “high antinociception activity”. In addition, the “affinity for κ opioid receptors” value in test [6] was “high affinity”.
For the molecule `C[C@H]1C2Cc3ccc4c(=O)[nH]cnc4c3[C@@]1(C)CCN2CC1CC1` [Example 8], the Ki in test [1] (setting [9]) came to 2000 ± 49 nM; in test [2] (setting [10]) it was 270 ± 33 nM; in test [3] (setting [11]) it was 160 ± 7.1 nM.
For `C[C@H]1C2Cc3cc4nc[nH]c(=O)c4cc3[C@@]1(C)CCN2CC1CC1` [Example 9] the same measures were 780 ± 32 nM, 170 ± 6.7 nM and 12 ± 0.65 nM.
Turning to `CC1C2Cc3ccc4c(N)ncnc4c3C1(C)CCN2CC1CC1` (centres unmarked) [Example 10], the Ki came out at 120 ± 8.5 nM in test [1], 0.55 ± 0.018 nM in test [2] and 1 ± 0.071 nM in test [3] (setting [11]). The “GTPγS data, MOR” value in test [7] is “MOR and KOR antagonist”. In addition, in test [8], the “GTPγS data, KOR” value is “MOR and KOR antagonist”.
As for `CC1C2Cc3cc4ncnc(N)c4cc3C1(C)CCN2CC1CC1` (centres unmarked) [Example 11], the inhibition at 10 µM in test [1] (read-out: inh. of [3H]Naltrindole (δ) binding, at 10 μM) worked out at 47%. Further, the values for the inhibition constant Ki in test [2] and in test [3] (setting [11]) were 890 ± 39 nM and 560 ± 23 nM, respectively.
`CC1C2Cc3ccc4c(NCc5ccccc5)ncnc4c3C1(C)CCN2CC1CC1` (centres unmarked) [Example 12]: the Ki in test [1] amounted to 1500 ± 68 nM; in test [2], 44 ± 0.76 nM; in test [3] (setting [11]) it was 240 ± 1.8 nM.
For `CC1C2Cc3cc4ncnc(NCc5ccccc5)c4cc3C1(C)CCN2CC1CC1` (centres unmarked) [Example 13] the same measures were 1000 ± 37 nM, 88 ± 7.2 nM and 48 ± 2.3 nM.
For `CC1C2Cc3ccc4c(NCCc5ccc(-c6ccccc6)cc5)ncnc4c3C1(C)CCN2CC1CC1` (centres unmarked) [Example 14] the same measures were 52 ± 2.6 nM, 6.9 ± 0.33 nM and 8.6 ± 1.5 nM.
Regarding `CC1C2Cc3cc4ncnc(NCCc5ccc(-c6ccccc6)cc5)c4cc3C1(C)CCN2CC1CC1` (centres unmarked) [Example 15], the values for the Ki in test [1], in test [2] and in test [3] (setting [11]) were 410 ± 61 nM, 28 ± 1.9 nM and 140 ± 4.4 nM, respectively.
In the case of `C[C@H]1C2Cc3ccc4[nH]nnc4c3[C@@]1(C)CCN2CC1CC1` [Example 29], the Ki in test [1] (setting [9]) came to 46 ± 2.6 nM; in test [2] (setting [10]), 1.4 ± 0.043 nM; in test [3] (setting [11]), 0.23 ± 0.009 nM. In addition, the “GTPγS data, MOR” value in test [7] is “antagonist”. The “GTPγS data, KOR” value in test [8] was “agonist”.
Take `C[C@H]1C2Cc3cc4nn[nH]c4cc3[C@@]1(C)CCN2CC1CC1` [Example 30]: the Ki was 51 ± 7.8 nM in test [1] (setting [9]), 10 ± 1 nM in test [2] (setting [10]) and 0.81 ± 0.19 nM in test [3] (setting [11]). In test [7], the “GTPγS data, MOR” value was “antagonist”. Besides, the “GTPγS data, KOR” value in test [8] is “agonist”.
With `CC1C2Cc3cc4nc[nH]c4cc3C1(C)CCN2CC1CC1` (centres unmarked) [Example 34], the Ki amounted to 5.1 ± 0.65 nM in test [1], 0.31 ± 0.05 nM in test [2] and 0.063 ± 0.0016 nM in test [3] (setting [11]). In addition, the “GTPγS data, MOR” value in test [7] is on record as “MOR weak agonist/antagonist, KOR”.
As for `Cc1nc2cc3c(cc2[nH]1)CC1C(C)C3(C)CCN1CC1CC1` (centres unmarked) [Example 35], the Ki was determined as 18 ± 0.9 nM in test [1], 0.77 ± 0.051 nM in test [2] and 0.05 ± 0.002 nM in test [3] (setting [11]). The “GTPγS data, MOR” value in test [7] is “MOR agonist/weak antagonist; KOR”. The “GTPγS data, KOR” value in test [8] is “agonist”.
Regarding `CC1C2Cc3cc4[nH]c(=O)[nH]c4cc3C1(C)CCN2CC1CC1` (centres unmarked) [Example 36], the Ki in test [1] is 730 ± 8.3 nM; in test [2] it was 60 ± 7.9 nM; in test [3] (setting [11]) it was 12 ± 1.3 nM.
The corresponding values for `C[C@H]1C2Cc3ccc4c(N)onc4c3[C@@]1(C)CCN2CC1CC1` [Example 43] are 99 ± 10 nM, 0.75 ± 0.038 nM and 0.65 ± 0.005 nM.
With `C[C@H]1[C@H]2Cc3ccc(O)cc3[C@]1(C)CCN2CC1CC1` [cyclazocine], in test [5], the duration of action is 2 h.
